Experiments:
in vitro [1] = details: hamster
in vitro [2] = details: African green monkey
West Nile virus = details: cited from earlier work

| Molecule | CC50 (in vitro [1]) [µM] | CC50 (in vitro [2]) [µM] | activity against West Nile virus (West Nile virus) | CC50 (Vero E6 cells) [µM] | CC50 (BHK-21 cells) [µM] |
| --- | --- | --- | --- | --- | --- |
| COc1cc(/C=C(/NC(=O)c2ccccc2)C(=O)NNC(=O)CN)ccc1O [Compound C11472, (E)-N′-(2-aminoacetyl)-2-(benzamido)-3-(4-hydroxy-3-methoxyphenyl)acrylohydrazide] | > 100 | 82 ± 4.33 | – | – | – |
| CC1=C(C(=O)OCCc2ccccc2)C(c2ccccc2[N+](=O)[O-])C2=C(CCCC2=O)N1 (stereo not shown) [Compound C12344, 3-Quinolinecarboxylic acid, 1,4,5,6,7,8-hexahydro-2-methyl-4-(2-nitrophenyl)-5-oxo-, 2-phenylethyl ester] | > 100 | > 100 | – | – | – |
| CCOC(=O)c1cnc2ccc(OCC)cc2c1NCc1ccccc1 [Compound C26505, 4-Benzylamino-6-ethoxy-quinoline-3-carboxylic acid ethylester] | 78 ± 4.87 | > 100 | active | – | – |
| NC(=O)CCS(=O)(=O)c1ccc(Cl)cc1 [Compound C03455, 3-(4-Chlorobenzenesulfonyl)-propionamide] | 87 ± 5.23 | > 100 | active | – | – |
| S-Nitroso-N-acetyl penicillamine [Compound C38477] | – | – | – | 84 ± 2.96 | 58 ± 1.22 |
| CC(C)=CCC[C@](C)(O)C1CC[C@@H]2C1CC[C@H]1C2(C)CC[C@H]2C(C)(C)C(=O)CCC12C (stereo partly drawn) [Compound C01225, (5R,9S,14R)-dodecahydro-17-((S)-2-hydroxy-6-methylhept-5-en-2-yl)-4,4,8,10-tetramethyl-2Hcyclopenta[a]phenanthren-3(4H,9H,14H)-one] | > 100 | > 100 | – | – | – |
| N#Cc1c(N)nc(Sc2ccc(Cl)cc2)c(C#N)c1-c1cccs1 [Compound C47655, 2-Amino-6-[(4-chlorophenyl)thio]-4-(2-thienyl)pyridine-3,5-dicarbonitrile] | > 100 | > 100 | – | – | – |

Source: publication PMC7114325 (Antiviral Research, 2008)
